Square brackets hold non-standard residues; d marks the D form. Ends that are not written are not given here. Peptide text beside a SMILES is read from it. * marks the point of attachment. Phe(4-CN) = N#Cc1ccc(C[C@H](N)C(=O)O)cc1; Palmitoyl = CCCCCCCCCCCCCCCC(=O)*; rhodamine = not defined here; Nle = CCCC[C@H](N)C(=O)O; Dab = NCC[C@H](N)C(=O)O
How the values were obtained:
MCF7 breast cancer cells = experiment: MTT assay of growth inhibition / cytotoxicity in MCF7 cells; format: cell-based, human; conditions: for Cell growth, % of control: 5 μM, MTT assay 48 hours after exposure
Description: Activity was determined by MTT assay 48 hours after exposure of the MCF7 cells to the test compounds.
Peptides were constructed based on variations of the amino acid sequence of the second helix of STAT1 and STAT5a. ε-palmitoyl lysine was substituted for penetratin as a cell-penetrating motif Several residues of penetratin sequence were preserved in the lipopeptide derivatives, which served as a linking sequence. The peptides and peptidomimetics were tested for growth inhibitory and cytotoxic activity in MCF7 cells using an MTT assay as described in Example 2.
Retro-inverso peptide analogues were prepared comprising variants of the sequence of helix 2 of STAT3. STAT3-Hel2A-2 (see Example 3) was used as a starting sequence, in which all but three residues of the original penetratin sequence was replaced with palmitic acid. The variants were produced by systematically truncating and substituting the base sequence. The compounds were used to treat MCF7 breast cancer cells. IC50 values were determined 48 hours after exposing the cells to the test compounds.

STAT3 = biological target: T1, STAT3 (Homo sapiens, UniProt P40763); experiment: STAT3 tyrosine phosphorylation and expression in cytokine-treated breast cancer cells; format: cell-based; conditions: pretreatment 1 hour
T1 construct: endogenous in cells; host or cells: MCF-7 and MDA-MB-231
T1 sequence (P40763 whole entry): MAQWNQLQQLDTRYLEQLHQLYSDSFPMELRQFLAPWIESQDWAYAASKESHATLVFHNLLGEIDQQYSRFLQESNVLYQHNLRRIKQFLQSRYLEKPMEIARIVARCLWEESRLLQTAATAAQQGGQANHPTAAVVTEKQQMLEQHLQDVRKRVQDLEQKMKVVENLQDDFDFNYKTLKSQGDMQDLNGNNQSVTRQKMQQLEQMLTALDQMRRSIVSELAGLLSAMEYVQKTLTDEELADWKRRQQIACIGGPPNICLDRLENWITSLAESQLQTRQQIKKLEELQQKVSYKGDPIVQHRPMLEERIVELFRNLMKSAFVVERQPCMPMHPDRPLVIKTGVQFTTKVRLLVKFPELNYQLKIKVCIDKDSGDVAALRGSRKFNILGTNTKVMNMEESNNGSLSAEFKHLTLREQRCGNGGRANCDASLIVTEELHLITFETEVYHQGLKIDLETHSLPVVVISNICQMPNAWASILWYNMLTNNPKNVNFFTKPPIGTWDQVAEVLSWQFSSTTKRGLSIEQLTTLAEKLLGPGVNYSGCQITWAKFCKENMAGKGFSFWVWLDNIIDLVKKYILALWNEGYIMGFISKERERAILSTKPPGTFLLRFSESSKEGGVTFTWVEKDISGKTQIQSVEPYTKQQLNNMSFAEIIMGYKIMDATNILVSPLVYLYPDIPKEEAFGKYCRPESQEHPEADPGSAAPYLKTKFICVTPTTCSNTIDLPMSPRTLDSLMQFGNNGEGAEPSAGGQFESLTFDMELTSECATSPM
Description: (§1) MCF-7 and MDA-MB-231 cells were treated with Leukemia Inhibitory Factor (LIF) to activate STAT3 and with Interferon gamma (IFN-γ) to activate STAT1 signaling. In MCF-7 cells, LIF induced selective STAT3 tyrosine phosphorylation and IFN-γ induced selective STAT1 tyrosine phosphorylation. In MDA-MB-231 cells, however, each cytokine induced both STAT3 and STAT1 tyrosine phosphorylation.

STAT1 = biological target: T2, STAT1 (Homo sapiens, UniProt P42224); experiment: STAT1 tyrosine phosphorylation and expression in cytokine-treated breast cancer cells; format: cell-based; conditions: pretreatment 1 hour
T2 construct: endogenous in cells; host or cells: MCF-7 and MDA-MB-231
T2 sequence (P42224 1-750): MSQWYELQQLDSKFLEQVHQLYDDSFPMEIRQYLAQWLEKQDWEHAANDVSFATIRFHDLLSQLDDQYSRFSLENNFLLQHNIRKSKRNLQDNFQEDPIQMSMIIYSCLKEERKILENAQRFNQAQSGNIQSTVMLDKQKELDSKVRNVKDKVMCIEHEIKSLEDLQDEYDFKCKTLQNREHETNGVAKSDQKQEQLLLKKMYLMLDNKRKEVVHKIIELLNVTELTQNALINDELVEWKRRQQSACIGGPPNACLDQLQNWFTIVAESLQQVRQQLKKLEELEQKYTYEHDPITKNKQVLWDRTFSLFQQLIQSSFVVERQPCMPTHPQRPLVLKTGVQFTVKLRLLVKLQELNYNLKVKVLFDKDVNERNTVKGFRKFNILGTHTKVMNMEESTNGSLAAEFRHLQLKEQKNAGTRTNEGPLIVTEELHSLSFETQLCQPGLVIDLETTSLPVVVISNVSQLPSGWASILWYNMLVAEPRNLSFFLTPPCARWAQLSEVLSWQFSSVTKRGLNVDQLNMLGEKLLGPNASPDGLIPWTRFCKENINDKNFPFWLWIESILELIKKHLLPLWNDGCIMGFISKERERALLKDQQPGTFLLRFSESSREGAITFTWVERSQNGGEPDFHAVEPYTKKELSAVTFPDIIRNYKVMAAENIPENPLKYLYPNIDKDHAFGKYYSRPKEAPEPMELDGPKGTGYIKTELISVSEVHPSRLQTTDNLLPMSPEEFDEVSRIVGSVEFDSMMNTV
Description: as §1

[1] = system: STAT3-dependent transcription (APRE reporter); experiment: APRE luciferase reporter in MCF-7 cells activated by LIF; format: cell-based, human; conditions: basal and LIF-stimulated
Text: (§2) To evaluate effects of inhibitors on cytokine-activated transcription, luciferase reporter vectors APRE and ISRE were employed (Takeda et al., J. Endocrinol. 159, 323-330 (1998); Ivanova et al., J. Mol. Biol. 340, 641-653 (2004)). APRE was activated in MCF-7 cells by LIF.

[2] = system: STAT1-dependent transcription (ISRE reporter); experiment: ISRE luciferase reporter in MCF-7 cells activated by IFN-γ; format: cell-based, human; conditions: IFN-γ-stimulated
Text: as §2

STAT3 signaling = experiment: Luciferase reporter assay (Mercury JAK-STAT Pathway Profiling system, GAS or STAT3 elements) in MCF-7 cells; format: cell-based, human; set-up: concentration or dose not given beside the values; conditions: luciferase reporter with GAS or STAT3 elements, basal expression, within one hour after treatment
Description: Selected peptides were tested for inhibition of STAT3 signaling in breast cancer cell lines by luciferase reporter assay. The assay employed the Mercury JAK-STAT Pathway Profiling system (Clontech), which includes the enhancer elements GAS (interferon-γ activating sequence) or STAT3 (a modified GAS sequence) introduced as three tandem copies upstream of the TA promoter in a luciferase reporter vector. STAT3 helix 2 analogs reduced basal expression of the reporter construct containing the GAS, or STAT3 elements in MCF-7 cells within one hour after treatment.

[3] = biological target: T3, STAT3 tagged with eGFP (eGFP-STAT3) (Homo sapiens, UniProt P40763); experiment: FRET in living cells expressing eGFP-STAT3; format: binding; conditions: HEK293 cells stably expressing eGFP-STAT3, 5 μM, one hour
T3 construct: expressed in transfected cells; host or cells: HEK293
T3 sequence (P40763 whole entry): as the sequence (P40763 whole entry) above
Description: Fluorescence Resonance Energy Transfer (FRET) method was used to determine whether STAT3-HEL2A-2 (see Example 3) interacts with STAT3 in living cells. HEK293 cells stably expressing STAT3 tagged with eGFP on its N-terminus (eGFP-STAT3) were treated for one hour with 5 μM of STAT3-HEL2A-2 labeled with rhodamine. An additional cysteine residue was positioned at the C-terminus of penetratin to facilitate labeling. Excitation of eGFP (donor) was facilitated using a 488-nm light source, and the emission spectrum was detected. In the absence of energy transfer between eGFP and rhodamine, excitation of eGFP would lead to an emission peak at 520-540 nm, whereas energy transfer from eGFP to an adjacent rhodamine fluorochrome acceptor would cause an emission in the 560-600 nm range. […] The photobleaching of rhodamine restored the fluorescence of eGFP.
Cells expressing eGFP-STAT3, eGFP-STAT1, or eGFP were treated with rhodamine-labeled STAT3-HEL2A-2 (see Example 6). Excitation of eGFP was facilitated, and the emission spectrum detected, in accordance with the methods described in Example 6. FRET efficiency was calculated using equation 1-D0/D1, where D0 is fluorescence intensity of eGFP before rhodamine photobleaching and D1 is the intensity after rhodamine photobleaching.

[4] = MCF-7 and MDA-MB-231 cells treated with LIF or IFN-γ

Molecule | Cell growth, % of control (MCF7 breast cancer cells) [%] | Activity, % of control (STAT3 signaling) [%] | other results
DTRYLEQLHDabLYS (DTRYLEQLH[Dab]LYS; also: penetratin fused C-terminally) [Hel2F-Pen, penetratin fused to the C-terminus] | 60 ± 5 |  | 
DTRYLEQLHKLY (DTRYLEQLHKLY-penetratin) [Hel2A-2a-Pen, penetratin fused to the C-terminus] | 65 ± 5 |  | 
LDTKYLEQLHDabLY (LDTKYLEQLH[Dab]LY; also: penetratin fused C-terminally) [Hel2K-Pen, penetratin fused to the C-terminus] | 8 ± 2 |  | 
Ac-DTRYLEQLHKLY (Ac-DTRYLEQLHKLY-penetratin; also: penetratin fused C-terminally) [Ac-Hel2A-2a-Pen, penetratin fused to the C-terminus] | 45 ± 5 |  | 
CCCCCCCCCCCCCCCC(=O)N[C@H](CCCCN)C(=O)N[C@H](Cc1ccc(O)cc1)C(=O)N[C@H](CC(C)C)C(=O)N[C@H](CCCCN)C(=O)N[C@H](Cc1c[nH]cn1)C(=O)N[C@H](CC(C)C)C(=O)N[C@H](CCC(N)=O)C(=O)N[C@H](CCC(=O)O)C(=O)N[C@H](CC(C)C)C(=O)N[C@H](Cc1ccc(O)cc1)C(=O)N[C@H](CCCNC(=N)N)C(=O)N[C@@H](C(=O)N[C@H](CC(=O)O)C(N)=O)[C@H](C)O [St3-H2a-2a-Pa17] (Palmitoyl-[dK][dY][dL][dK][dH][dL][dQ][dE][dL][dY][dR][dT][dD]-NH2; C-terminus assumed) |  |  | IC50 (MCF7 breast cancer cells; read-out: IC50 (concentration causing 50% growth inhibition), 48 hours after exposure, Table 8): 1800 nM
DSKFLEQVHKLY-penetratin [STAT1-Hel2A-2] |  |  | Effect on expression level of STAT3 protein (STAT3; MCF-7 and MDA-MB-231 cells): did not change; Effect on tyrosine phosphorylation of STAT3 (STAT3; [4]): did not affect; Effect on expression level of STAT1 protein (STAT1; MCF-7 and MDA-MB-231 cells): did not change; Effect on tyrosine phosphorylation of STAT1 (STAT1; [4]): did not affect; Effect on APRE reporter expression [1]: inhibited both basal and stimulated expression; Effect on ISRE reporter activation [2]: prevented cytokine-stimulated reporter activation
DTRYLEQLHDabLY (DTRYLEQLH[Dab]LY; also: penetratin fused C-terminally) [Hel2I-Pen, penetratin fused to the C-terminus] | 25 ± 4 | 53 ± 6 | 
rhodamine-labeled STAT3-HEL2A-2: STAT3-HEL2A-2 labeled with rhodamine via an additional cysteine residue at the C-terminus of penetratin (LDTRYLEQLHKLYRQIKIWFPNRR[Nle]KWKKC(rhodamine); reading uncertain) |  |  | Quenching of the normal fluorescence of eGFP [3]: 90%
DTRYLEQLHKLCyPheS (DTRYLEQLHKL[Phe(4-CN)]S; also: penetratin fused C-terminally) [Hel2C-Pen, CyPhe is 4-cyano phenylalanine; penetratin fused to the C-terminus] | 38 ± 4 |  | 
Ac-DTRYLEQLHELY (Ac-DTRYLEQLHELY-penetratin; also: penetratin fused C-terminally) [Hel2A-4-Pen, penetratin fused to the C-terminus] | 91 ± 6 |  | 
LDTRYLEQLHQLYS (LDTRYLEQLHQLYS-penetratin) [Hel2-Pen] | 73 ± 5 | 56 ± 5 | 
Ac-ATRYLEQLHKLY (Ac-ATRYLEQLHKLY-penetratin; also: penetratin fused C-terminally) [Hel2A-5-Pen, penetratin fused to the C-terminus] | 85 ± 5 |  | 
DTRYLQELHKLYS (DTRYLQELHKLYS-penetratin) [Hel2E-Pen, penetratin fused to the C-terminus] | 46 ± 4 |  | 
Ac-DTRYLEQLHALY (Ac-DTRYLEQLHALY-penetratin; also: penetratin fused C-terminally) [Hel2A-3-Pen, penetratin fused to the C-terminus] | 93 ± 6 | 89 ± 9 | 
DTRYLEQLHKLYS (DTRYLEQLHKLYS-penetratin) [Hel2A-Pen, penetratin fused to the C-terminus] | 44 ± 5 | 100 ± 9 | 
LDTRYLEQLHDabLY (LDTRYLEQLH[Dab]LY; also: penetratin fused C-terminally) [Hel2H-Pen, penetratin fused to the C-terminus] | 45 ± 4 | 43 ± 4 | 
DTKYLEQLHKLYS (DTKYLEQLHKLYS-penetratin) [Hel2D-Pen, penetratin fused to the C-terminus] | 42 ± 4 |  | 
LDTRYLEQLHKLYS (LDTRYLEQLHKLYS-penetratin) [Hel2B-Pen, penetratin fused to the C-terminus] | 82 ± 6 | 100 ± 9 | 

— patent publication US9540427B2, “Peptide-based stat inhibitor” (The United States of America, as represented by the …, priority 2007, dated 2017)
